Experimental data: patent US8258304B2, “N-aryl piperidine substituted biphenylcarboxamides” (Janssen Pharmaceutica N.V., priority 2002, dated 2012)

Tested on: not given
Test: not given
Conditions: not given

melting point	SMILES
134 to 137 °C	CCOC(=O)CC1CCN(c2ccc(NC(=O)c3cccc(C)c3-c3ccc(C(F)(F)F)cc3)cn2)CC1 [Compound 14]

Tested on: secretion of ApoB in HepG2 cells
Test: Quantification of the secretion of ApoB
Format: cell-based
Conditions: Homo sapiens, 24 hours of incubation with test compound, apoB immunoprecipitated from medium, read-out: pIC50 values (=−log IC50 value) (converted)
Protocol: HepG2 cells were cultured in 24-well plates in MEM Rega 3 containing 10% fetal calf serum. At 70% confluency, the medium was changed and the test compound or carrier (DMSO, 0.4% final concentration) was added. After 24 hours of incubation, the medium was transferred to Eppendorf tubes and cleared by centrifugation. A sheep antibody directed against either apoB was added to the supernatant and the mixture was kept at 8° C. for 24 hours. Then, rabbit anti-sheep antibody was added and the immune complex was allowed to precipitate for 24 hours at 8° C. The immunoprecipitate was pelleted by centrifugation for 25 minutes at 1320 g and washed twice with a buffer containing 40 mM Mops, 40 mM NaH2PO4, 100 mM NaF, 0.2 mM DTT, 5 mM EDTA, 5 mM EGTA, 1% Triton-X-100, 0.5% sodium deoxycholate (DOC), 0.1% SDS, 0.2 μM leupeptin and 0.2 μM PMSF. Radioactivity in the pellet was quantified by liquid scintillation counting.
Resulting IC50 values are enumerated in Table C.1.

SMILES	IC50
O=C(Nc1ccc(N2CCC(C(=O)NCc3ccccc3)CC2)cc1)c1ccccc1-c1ccc(C(F)(F)F)cc1 [Compound 1]	25.4 nM
CC(C)(C)c1ccc(-c2ccccc2C(=O)Nc2ccc(N3CCC(CC(=O)NCc4ccccc4)CC3)cc2)cc1 [Compound 2]	6.04 nM
O=C(CC1CCN(c2ccc(NC(=O)c3ccccc3-c3ccc(C(F)(F)F)cc3)cc2)CC1)NCc1ccccc1 [Compound 3]	3.56 nM
CCNC(=O)C1CCN(c2ccc(NC(=O)c3ccccc3-c3ccc(C(F)(F)F)cc3)cc2)CC1 [Compound 4]	8.02 nM
CCNC(=O)CC1CCN(c2ccc(NC(=O)c3ccccc3-c3ccc(C(F)(F)F)cc3)cc2)CC1 [Compound 5]	38.4 nM
CCNC(=O)C1CCN(c2ccc(NC(=O)c3ccccc3-c3ccc(C(C)(C)C)cc3)cc2)CC1 [Compound 6]	11.6 nM
CCNC(=O)CC1CCN(c2ccc(NC(=O)c3ccccc3-c3ccc(C(C)(C)C)cc3)cc2)CC1 [Compound 7]	2.39 nM
CC(C)(C)c1ccc(-c2ccccc2C(=O)Nc2ccc(N3CCC(C(=O)NCc4ccccc4)CC3)cc2)cc1 [Compound 8]	153 nM
COC(=O)C1CCN(c2ccc(NC(=O)c3ccccc3-c3ccc(C(F)(F)F)cc3)cc2)CC1 [Compound 9]	619 nM
CCOC(=O)CC1CCN(c2ccc(NC(=O)c3cccc(C)c3-c3ccc(C(F)(F)F)cc3)cc2)CC1 [Compound 10]	11.3 nM

Now from value to molecule:

IC50	SMILES
12.1 nM	COC(=O)CC1CCN(c2ccc(NC(=O)c3ccccc3-c3ccc(C(F)(F)F)cc3)cc2)CC1 [Compound 11]
31.4 nM	CCOC(=O)CC1CCN(c2ccc(NC(=O)c3ccc(C)cc3-c3ccc(C(F)(F)F)cc3)cc2)CC1 [Compound 12]
89.5 nM	CCOC(=O)CC1CCN(c2ccc(NC(=O)c3ccccc3-c3ccc(C(F)(F)F)cc3)cn2)CC1 [Compound 13]
9.29 nM	CCOC(=O)CC1CCN(c2ccc(NC(=O)c3cccc(C)c3-c3ccc(C(F)(F)F)cc3)cn2)CC1 [Compound 14]
25.6 nM	CCOC(=O)CC1CCN(c2ccc(NC(=O)c3ccc(C)cc3-c3ccc(C(F)(F)F)cc3)cn2)CC1 [Compound 15]
